In publication PMC3914206:

Columns and labels:
Assay type in all cases: binding
Settings in all cases: Compound Concentration 10 µM
[1] = target: T1, panel of 442 kinases (Homo sapiens, UniProt O15264)
T1 construct: purchased KINOMEscan
T1 sequence (O15264 1-365): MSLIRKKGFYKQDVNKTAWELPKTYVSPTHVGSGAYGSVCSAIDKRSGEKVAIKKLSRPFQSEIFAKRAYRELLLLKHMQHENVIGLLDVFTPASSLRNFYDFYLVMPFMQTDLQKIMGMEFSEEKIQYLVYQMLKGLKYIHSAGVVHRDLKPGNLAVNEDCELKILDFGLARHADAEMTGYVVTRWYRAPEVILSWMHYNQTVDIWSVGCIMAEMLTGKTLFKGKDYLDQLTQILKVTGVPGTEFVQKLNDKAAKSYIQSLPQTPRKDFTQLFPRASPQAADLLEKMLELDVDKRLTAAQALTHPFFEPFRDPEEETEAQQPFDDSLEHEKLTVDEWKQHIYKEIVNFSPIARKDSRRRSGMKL
Excerpt: (§1) We assessed the selectivity of members of this scaffold using the KINOMEscan methodology across a near comprehensive panel of 442 kinases [[18,27]].

[2] = target: T2, panel of 442 kinases (Homo sapiens, UniProt Q05397)
T2 construct: purchased KINOMEscan
T2 sequence (Q05397 whole entry): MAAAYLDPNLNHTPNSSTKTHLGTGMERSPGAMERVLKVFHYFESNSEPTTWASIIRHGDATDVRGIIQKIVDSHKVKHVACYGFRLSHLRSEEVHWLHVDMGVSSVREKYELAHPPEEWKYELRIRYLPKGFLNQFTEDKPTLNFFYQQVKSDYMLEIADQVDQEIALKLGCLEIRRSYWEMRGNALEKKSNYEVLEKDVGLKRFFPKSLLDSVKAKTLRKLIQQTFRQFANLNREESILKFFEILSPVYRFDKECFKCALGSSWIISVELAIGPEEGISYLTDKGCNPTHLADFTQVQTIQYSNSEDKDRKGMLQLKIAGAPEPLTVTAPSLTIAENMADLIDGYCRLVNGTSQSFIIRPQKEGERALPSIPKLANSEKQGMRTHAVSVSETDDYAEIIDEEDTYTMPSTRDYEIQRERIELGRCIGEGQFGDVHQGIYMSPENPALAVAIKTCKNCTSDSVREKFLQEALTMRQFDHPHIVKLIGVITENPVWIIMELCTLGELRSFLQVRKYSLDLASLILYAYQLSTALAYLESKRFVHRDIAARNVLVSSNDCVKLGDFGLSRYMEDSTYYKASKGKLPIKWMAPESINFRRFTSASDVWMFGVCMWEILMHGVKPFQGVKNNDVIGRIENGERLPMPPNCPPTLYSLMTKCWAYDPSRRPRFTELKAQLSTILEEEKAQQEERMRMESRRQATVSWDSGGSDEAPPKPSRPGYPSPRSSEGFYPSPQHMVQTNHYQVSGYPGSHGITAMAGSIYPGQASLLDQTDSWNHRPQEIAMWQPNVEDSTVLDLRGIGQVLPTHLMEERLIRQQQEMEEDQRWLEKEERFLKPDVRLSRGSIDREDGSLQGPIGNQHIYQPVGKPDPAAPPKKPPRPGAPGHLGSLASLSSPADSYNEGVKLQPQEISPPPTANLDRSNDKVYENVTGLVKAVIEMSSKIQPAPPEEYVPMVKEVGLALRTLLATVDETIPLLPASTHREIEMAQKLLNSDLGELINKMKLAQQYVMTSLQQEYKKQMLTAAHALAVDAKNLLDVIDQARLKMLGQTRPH
Excerpt: as §1

[3] = target: T3, panel of 442 kinases (Homo sapiens, UniProt Q9Y2U5)
T3 construct: purchased KINOMEscan
T3 sequence (Q9Y2U5 1-619): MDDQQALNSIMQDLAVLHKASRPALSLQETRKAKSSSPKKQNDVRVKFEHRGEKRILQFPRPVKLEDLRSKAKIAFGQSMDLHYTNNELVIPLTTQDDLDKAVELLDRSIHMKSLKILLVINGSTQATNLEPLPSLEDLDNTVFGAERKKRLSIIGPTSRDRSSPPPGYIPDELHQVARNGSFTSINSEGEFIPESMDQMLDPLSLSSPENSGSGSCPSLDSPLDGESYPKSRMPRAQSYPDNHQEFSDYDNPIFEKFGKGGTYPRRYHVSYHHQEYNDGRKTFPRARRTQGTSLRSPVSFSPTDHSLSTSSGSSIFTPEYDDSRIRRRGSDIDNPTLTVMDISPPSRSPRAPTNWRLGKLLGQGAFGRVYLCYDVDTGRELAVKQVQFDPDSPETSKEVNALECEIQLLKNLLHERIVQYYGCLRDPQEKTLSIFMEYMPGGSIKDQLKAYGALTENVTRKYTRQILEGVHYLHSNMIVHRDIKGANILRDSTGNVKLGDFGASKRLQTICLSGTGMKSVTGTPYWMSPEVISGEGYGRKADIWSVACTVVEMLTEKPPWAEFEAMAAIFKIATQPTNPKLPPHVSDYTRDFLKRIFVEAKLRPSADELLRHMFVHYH
Excerpt: as §1

Row | SMILES | KINOMEscan: p38-delta [1] | KINOMEscan: FAK [2] | KINOMEscan: MAP3K2 [3]
1 | COc1cc(C(=O)N2CCC(N3CCN(C)CC3)CC2)ccc1Nc1ncc2c(n1)N(C)c1ccccc1C(=O)N2C [15 (LRRK2-IN-1)] | 72 | 34 | 97
2 | COc1cc(C(=O)N2CCC(N3CCN(C)CC3)CC2)ccc1Nc1ncc2c(n1)N(C1CCCC1)c1ccccc1C(=O)N2C [Compound 25, 11-cyclopentyl-2-((2-methoxy-4-(4-(4-methylpiperazin-1-yl)piperidine-1-carbonyl)phenyl)amino)-5-methyl-5H-benzo[e]pyrimido[5,4-b][1,4]diazepin-6(11H)-one] | 100 | 19 | 90
3 | CCOc1cc(C(=O)N2CCC(N3CCN(C)CC3)CC2)ccc1Nc1ncc2c(n1)N(C1CCCC1)c1ccccc1C(=O)N2C [Compound 26] | 100 | 57 | 100
